This passage reports IC50 results from patent publication US9115143B2, “Substituted indole derivatives as gamma secretase modulators” (Janssen Pharmaceuticals, Inc., priority 2011, dated 2015).

In experiment [1] the test system is Aβ42. Kind of experiment: Screening for γ-secretase-modulating activity: Aβ42 in supernatant of SKNBE2 cells carrying hAPP 695 wild type (Alphalisa). Conditions: overnight incubation, Alphalisa on supernatant. It counts as cell-based, human. The method, then:
(§1) Pharmacology A) Screening of the Compounds of the Invention for γ-Secretase-Modulating Activity
(§2) Screening was carried out using SKNBE2 human neuroblastoma cells carrying the hAPP 695—wild type, grown in Dulbecco's Modified Eagle's Medium/Nutrient mixture F-12 (DMEM/NUT-mix F-12) (HAM) provided by Invitrogen (cat no. 10371-029) containing 5% Serum/Fe supplemented with 1% non-essential amino acids, 1-glutamine 2 mM, Hepes 15 mM, penicillin 50 U/mL (units/mL) en streptomycin 50 μg/mL. Cells were grown to near confluency.
(§3) The screening was performed using a modification of the assay as described in Citron et al (1997) Nature Medicine 3: 67. Briefly, cells were plated in a 384-well plate at 10^4 cells/well in Ultraculture (Lonza, BE12-725F) supplemented with 1% glutamine (Invitrogen, 25030-024), 1% non-essential amino acid (NEAA), penicillin 50 U/mL en streptomycin 50 μg/mL in the presence of test compound at different test concentrations. The cell/compound mixture was incubated overnight at 37° C., 5% CO2. The next day the media were assayed by two sandwich immuno-assays, for Aβ42 and Aβtotal.
(§4) Aβtotal and Aβ42 concentrations were quantified in the cell supernatant using the Aphalisa technology (Perkin Elmer). Alphalisa is a sandwich assay using biotinylated antibody attached to streptavidin coated donorbeads and antibody conjugated to acceptor beads. In the presence of antigen, the beads come into close proximity. The excitation of the donor beads provokes the release of singlet oxygen molecules that trigger a cascade of energy transfer in the acceptor beads, resulting in light emission. To quantify the amount of Aβ42 in the cell supernatant, monoclonal antibody specific to the C-terminus of Aβ42 (JRF/cAβ42/26) was coupled to the receptor beads and biotinylated antibody specific to the N-terminus of Aβ (JRF/AβN/25) was used to react with the donor beads. To quantify the amount of Aβ total in the cell supernatant, monoclonal antibody specific to the N-terminus of Aβ (JRF/AβN/25) was coupled to the receptor beads and biotinylated antibody specific to the mid region of Aβ (biotinylated 4G8) was used to react with the donor beads.
(§5) To obtain the values reported in Table 3, the data are calculated as percentage of the maximum amount of amyloid Beta 42 measured in the absence of the test compound. The sigmoidal dose response curves were analyzed using nonlinear regression analysis with percentage of the control plotted against the log concentration of the compound. A 4-parameter equation was used to determine the IC50.

The test system of experiment [2] is Aβtotal. The experiment in a line: Screening for γ-secretase-modulating activity: Aβtotal in supernatant of SKNBE2 cells carrying hAPP 695 wild type (Alphalisa). To be noted: overnight incubation, Alphalisa on supernatant. Format: cell-based, human. The protocol: as §1, §2, §3, §4, §5
In general terms: Bead proximity is the source of the signal in Alpha formats.

The mark [3] stands for this setting: Homo sapiens, SKNBE2, SKNBE2 human neuroblastoma cells carrying hAPP 695 wild type.
Setting [4] is: SKNBE2 human neuroblastoma cells carrying hAPP 695 wild type.

A word on the IC50: it is the concentration that gives 50% inhibition. A lower IC50 goes with inhibition by little substance. Take `Cc1cn(-c2ccc3[nH]c(-c4nc5n(n4)CCOC5c4ccc(F)cc4C)cc3n2)cn1` (centres unmarked) [Compound 94, 8-(4-fluoro-2-methylphenyl)-5,6-dihydro-2-[5-(4-methyl-1H-imidazol-1-yl)-1H-pyrrolo[3,2-b]pyridin-2-yl]-8H-[1,2,4]triazolo[5,1-c][1,4]oxazine]: the concentration for half-maximal inhibition (IC50) in experiment [1] (setting [3]) stood at 170 nM; in experiment [2] (setting [3]), 1820 nM.

In the case of `N#Cc1ccc2[nH]c(-c3cn4c(n3)C(c3ccccc3C(F)(F)F)CCC4)cc2c1` (centres unmarked) [Compound 17, 2-[5,6,7,8-tetrahydro-8-[2-(trifluoromethyl)phenyl]imidazo[1,2-a]pyridin-2-yl]-1H-indole-5-carbonitrile], the IC50 in experiment [1] (setting [3]) was 87 nM; in experiment [2] (setting [3]), above 10000 nM.

As to `COc1c(C#N)ccc2[nH]c(-c3nc4n(n3)CCOC4c3c(F)cccc3C(F)(F)F)cc12` (centres unmarked) [Compound 125, 2-[8-[2-fluoro-6-(trifluoromethyl)phenyl]-5,6-dihydro-8H-[1,2,4]triazolo[5,1-c][1,4]oxazin-2-yl]-4-methoxy-1H-indole-5-carbonitrile], the figures for the half-inhibitory concentration (IC50) in experiment [1] (setting [4]) and in experiment [2] (setting [3]) were 71 nM and above 10000 nM, respectively.

With `COc1c(C#N)ccc2[nH]c(-c3nc4n(n3)CCOC4c3c(F)cccc3C(F)(F)F)cc12` (centres unmarked) [Compound 163, 2-[8-[2-fluoro-6-(trifluoromethyl)phenyl]-5,6-dihydro-8H-[1,2,4]triazolo[5,1-c][1,4]oxazin-2-yl]-4-methoxy-1H-indole-5-carbonitrile], the values for the half-maximal inhibitory concentration (IC50) in experiment [1] (setting [4]) and in experiment [2] (setting [4]) were 52 nM and above 10000 nM, respectively.

For `Cc1cc(F)ccc1C1CCCn2nc(-c3cc4cc(C#N)ccc4[nH]3)nc21` (centres unmarked) [Compound 11, 2-[8-(4-fluoro-2-methylphenyl)-5,6,7,8-tetrahydro[1,2,4]triazolo[1,5-a]pyridin-2-yl]-1H-indole-5-carbonitrile], the IC50 is 3470 nM in experiment [1] (setting [4]) and above 10000 nM in experiment [2] (setting [4]).

Take `COc1c(C#N)ccc2[nH]c(-c3cn4c(n3)C(c3cccc(C)c3F)OCC4)cc12` (single isomer, unassigned) [Compound 136, 2-[8-(2-fluoro-3-methylphenyl)-5,6-dihydro-8H-imidazo[2,1-c][1,4]oxazin-2-yl]-4-methoxy-1H-indole-5-carbonitrile]: the 50% inhibitory concentration (IC50) was 1260 nM in experiment [1] (setting [4]) and above 10000 nM in experiment [2] (setting [4]).

As to `COc1c(-n2cnc(C)c2)ccc2[nH]c(-c3nc4n(n3)CCCC4c3ccc(F)cc3C)cc12` (single isomer, unassigned) [Compound 84, 8-(4-fluoro-2-methylphenyl)-5,6,7,8-tetrahydro-2-[4-methoxy-5-(4-methyl-1H-imidazol-1-yl)-1H-indol-2-yl]-[1,2,4]triazolo[1,5-a]pyridine], the results for the IC50 in experiment [1] (setting [4]) and in experiment [2] (setting [4]) were 48 nM and 5370 nM, respectively.

Consider `COc1c(C#N)ccc2[nH]c(-c3nc4n(n3)CCN(C)C4c3ccc(F)cc3C)cc12` (centres unmarked) [Compound 58, 2-[8-(4-fluoro-2-methylphenyl)-5,6,7,8-tetrahydro-7-methyl[1,2,4]triazolo[1,5-a]pyrazin-2-yl]-4-methoxy-1H-indole-5-carbonitrile], for which the IC50 in experiment [1] (setting [3]) was 49 nM; in experiment [2] (setting [3]) it was above 10000 nM.

For `CCOc1c(C#N)ccc2[nH]c(-c3nc4n(n3)CCOC4c3ccc(F)cc3C)cc12` (centres unmarked) [Compound 171, 4-ethoxy-2-[8-(4-fluoro-2-methylphenyl)-5,6-dihydro-8H-[1,2,4]triazolo[5,1-c][1,4]oxazin-2-yl]-1H-indole-5-carbonitrile], the 50% inhibitory concentration (IC50) was 151 nM in experiment [1] (setting [3]) and above 10000 nM in experiment [2] (setting [3]).

Turning to `COCc1ccccc1C1OCCn2cc(-c3cc4c(OC)c(C#N)ccc4[nH]3)nc21` (centres unmarked) [Compound 145, 2-[5,6-dihydro-8-[2-(methoxymethyl)phenyl]-8H-imidazo[2,1-c][1,4]oxazin-2-yl]-4-methoxy-1H-indole-5-carbonitrile], the IC50 is 110 nM in experiment [1] (setting [4]) and above 10000 nM in experiment [2] (setting [4]).

On to `Cc1cc(F)ccc1C1OCCn2nc(-c3cc4cc(-c5cnn(C)c5)ccc4[nH]3)nc21` (centres unmarked) [Compound 107, 8-(4-fluoro-2-methylphenyl)-5,6-dihydro-2-[5-(1-methyl-1H-pyrazol-4-yl)-1H-indol-2-yl]-8H-[1,2,4]triazolo[5,1-c][1,4]oxazine], for which the IC50 in experiment [1] (setting [3]) is 148 nM; in experiment [2] (setting [3]), above 10000 nM.

Take `COCc1ccccc1C1CCCn2nc(-c3cc4c(OC)c(C#N)ccc4[nH]3)nc21` (centres unmarked) [Compound 89, 4-methoxy-2-[5,6,7,8-tetrahydro-8-[2-(methoxymethyl)phenyl][1,2,4]triazolo[1,5-a]pyridin-2-yl]-1H-indole-5-carbonitrile]: the IC50 in experiment [1] (setting [4]) is 56 nM; in experiment [2] (setting [3]) it was above 10000 nM.

`COc1c(-n2cnc(C)c2)ccc2[nH]c(-c3cn4c(n3)C(c3ccc(F)cc3C)CCC4)cc12` (single isomer, unassigned) [Compound 78, 8-(4-fluoro-2-methylphenyl)-5,6,7,8-tetrahydro-2-[4-methoxy-5-(4-methyl-1H-imidazol-1-yl)-1H-indol-2-yl]-imidazo[1,2-a]pyridine]: the IC50 in experiment [1] (setting [4]) is 30 nM; in experiment [2] (setting [3]) it was above 10000 nM.

Consider `Cc1cc(F)ccc1C1OCCn2nc(-c3cc4c(OC(C)C)c(C#N)ccc4[nH]3)nc21` (single isomer, unassigned) [Compound 172, 2-[8-(4-fluoro-2-methylphenyl)-5,6-dihydro-8H-[1,2,4]triazolo[5,1-c][1,4]oxazin-2-yl]-4-(1-methylethoxy)-1H-indole-5-carbonitrile], for which the IC50 in experiment [1] (setting [4]) and in experiment [2] (setting [4]) was above 10000 nM in each case.

For the compound `COc1c(C#N)ccc2[nH]c(-c3nc4n(n3)CCOC4c3ccc(F)c(Cl)c3)cc12` (centres unmarked) [Compound 144, 2-[8-(3-chloro-4-fluorophenyl)-5,6-dihydro-8H-[1,2,4]triazolo[5,1-c][1,4]oxazin-2-yl]-4-methoxy-1H-indole-5-carbonitrile], the half-inhibitory concentration (IC50) in experiment [1] (setting [4]) was 214 nM; in experiment [2] (setting [3]), above 10000 nM.

Consider `COc1c(C#N)ccc2[nH]c(-c3cn4c(n3)C(c3cccc(F)c3C(F)(F)F)OCC4)cc12` (single isomer, unassigned) [Compound 132, 2-[8-[3-fluoro-2-(trifluoromethyl)phenyl]-5,6-dihydro-8H-imidazo[2,1-c][1,4]oxazin-2-yl]-4-methoxy-1H-indole-5-carbonitrile], for which the IC50 is 490 nM in experiment [1] (setting [4]) and above 10000 nM in experiment [2] (setting [4]).

As to `Cc1ccc(C(F)(F)F)cc1C1OCCn2nc(-c3cc4cc(C#N)ccc4[nH]3)nc21` (centres unmarked) [Compound 34, 2-[5,6-dihydro-8-[2-methyl-5-(trifluoromethyl)phenyl]-8H-[1,2,4]triazolo[5,1-c][1,4]oxazin-2-yl]-1H-indole-5-carbonitrile], the half-maximal inhibitory concentration (IC50) in experiment [1] (setting [3]) was 692 nM; in experiment [2] (setting [3]), above 10000 nM.

Regarding `COc1c(C#N)ccc2[nH]c(-c3cn4c(n3)C(c3ccc(F)c(Cl)c3)OCC4)cc12` (centres unmarked) [Compound 155, 2-[8-(3-chloro-4-fluorophenyl)-5,6-dihydro-8H-imidazo[2,1-c][1,4]oxazin-2-yl]-4-methoxy-1H-indole-5-carbonitrile], the IC50 was 1480 nM in experiment [1] (setting [4]) and above 10000 nM in experiment [2] (setting [4]).

On to `COc1c(C#N)ccc2[nH]c(-c3cn4c(n3)C(c3ccccc3C(F)(F)F)OCC4)cc12` (single isomer, unassigned) [Compound 45, 2-[5,6-dihydro-8-[2-(trifluoromethyl)phenyl]-8H-imidazo[2,1-c][1,4]oxazin-2-yl]-4-methoxy-1H-indole-5-carbonitrile], for which the results for the half-inhibitory concentration (IC50) in experiment [1] (setting [4]) and in experiment [2] (setting [4]) were 372 nM and above 10000 nM, respectively.

Turning to `COc1c(-n2cnc(C)c2)ccc2[nH]c(-c3cn4c(n3)C(c3ccc(F)cc3C)OCC4)cc12` (single isomer, unassigned) [Compound 113, 8-(4-fluoro-2-methylphenyl)-5,6-dihydro-2-[4-methoxy-5-(4-methyl-1H-imidazol-1-yl)-1H-indol-2-yl]-8H-imidazo[2,1-c][1,4]oxazine], the half-inhibitory concentration (IC50) in experiment [1] (setting [4]) is 151 nM; in experiment [2] (setting [4]), above 10000 nM.

In the case of `Cc1ccccc1C1CCCn2cc(-c3cc4cc(C#N)ccc4[nH]3)nc21` (centres unmarked) [Compound 15, 2-[5,6,7,8-tetrahydro-8-(2-methylphenyl)imidazo[1,2-a]pyridin-2-yl]-1H-indole-5-carbonitrile], the figures for the IC50 in experiment [1] (setting [3]) and in experiment [2] (setting [3]) were 89 nM and above 10000 nM, respectively.

In the case of `COc1c(C#N)ccc2[nH]c(-c3nc4n(n3)CCOC4c3cccc(F)c3C)cc12` (centres unmarked) [Compound 127, 2-[8-(3-fluoro-2-methylphenyl)-5,6-dihydro-8H-[1,2,4]triazolo[5,1-c][1,4]oxazin-2-yl]-4-methoxy-1H-indole-5-carbonitrile], the results for the IC50 in experiment [1] (setting [4]) and in experiment [2] (setting [3]) were 33 nM and above 10000 nM, respectively.
